Results published in patent US10226044B2, “Agricultural and horticultural composition and method for cultivating plant” (AJINOMOTO CO., INC., priority 2014, dated 2019).
Read-outs that look alike come from different tables or passages of the source.

Experiments:
[1] = system: LOX, JAR1, PI and MYC2 genes; assay: Investigation of isoleucine concentration for sprinkling (II): gene expression; assay type: in vivo, tomato (Caddy); details: 50 mM Ile, 3 mL on leaf surfaces (0.01, 0.1, 50, 100 mM tested)
Description: Tomato plants (variety: Caddy, Tokita Seed) were cultivated in a biotron room in the same manner as described in Example 1. Three weeks after sowing, 3 mL of water, or a 0.01 mM, 0.1 mM, 50 mM, or 100 mM isoleucine aqueous solution (Ile) was sprinkled on leaf surfaces of each plant, sampling was performed from the second foliage leaves, and expression of LOX, JAR1, PI and MYC2 genes were analyzed in the same manner as described in Example

[2] = system: LOX, JAR1, PI and MYC2 genes; assay: Real-time PCR of jasmonic acid synthesis and response genes in leaves after foliar application; assay type: in vivo, cherry tomato (Suncherry Pure); details: 10 mM Ile, 3 hours after foliar application
Description: Three hours after the foliar application, leaves of the same part were collected, and RNA was isolated by using SV Total RNA Isolation System™ (Promega) according to the manual of the kit. […] Expression of the 13-lipoxygenase (LOX) gene locating in the upstream of the jasmonic acid biosynthesis pathway, and the gene for synthesis of JA-Ile from JA and Ile (JASMONATE RESISTANT 1 (JAR1)) were analyzed. The expression amounts of the genes are represented as relative expression amounts with respect to that of the actin gene. The results of real-time PCR analysis of the jasmonic acid responding genes, protease inhibitor (PI) and MYC2 genes, performed by using the aforementioned cDNAs as the template are shown in FIG. 13. By the sprinkling of Ile, expression of the PI and MYC2 genes were increased.

[3] = system: cherry tomato (Suncherry Pure); assay: Antioxidant capacity of tomato fruit extract (DPPH radical method); assay type: in vivo; details: 70% methanol extract of mature fruit; compared to tomatoes sprinkled with water (Con.) or Pro
Description: After the plants of four root clumps uniformly grew, and flower buds began to appear, water (Con.), 10 mM L-isoleucine aqueous solution (Ile), or 10 mM proline aqueous solution (Pro) was sprinkled on the whole plants once a week. The sprinkled volume was adjusted in accordance with the growth of the plants, and it was 15 to 30 mL per one root clump.

tomato (Momotaro Fight) = assay: Sprinkling of various compounds on tomato (Momotaro): first appearance, coloring and number of fruit; assay type: in vivo
Description: Three seeds of tomato (Momotaro Fight) were shown in compost contained in a slit pot, and cultivated in the same manner as described in Example 1, provided that the cultivation was performed in a greenhouse (daytime temperature was 25° C. (6:00 to 20:00), and night temperature was 15° C. (20:00 to 6:00)). The compost and application of fertilizer were the same or performed in the same manner as those described in Example 1. After 3 weeks, one root clump was left, and the others were thinned out. When a flower cluster of the first tier appeared, a support was put up, and after a flower cluster of the second tier appeared, pinching was performed (pinching of terminal bud). After the plants of four root clumps uniformly grew, and flower buds began to appear, water (Con.), 10 mM L-isoleucine aqueous solution (Ile), 10 mM monosodium glutamate aqueous solution (GluNa), 5 mM urea aqueous solution (Urea), or 10 mM phenylalanine aqueous solution (Phe) was sprinkled on the whole plants every two weeks. The sprinkled volume was adjusted in accordance with the growth of the plants, and it was 15 to 30 mL per one root clump. The concentration of urea was 5 mM so that nitrogen amount provided by it was the same as that provided by each of the amino acids. Then, the first appearance of fruit, ripening of fruit, and number of fruit produced were investigated for each root clump.

[4] = cited from earlier work
rice seeds = rice seeds treated with 0.2 to 20 mM isoleucine; cited from earlier work
[5] = system: grape (Cabernet Sauvignon); assay: Anthocyanin content of pericarp of grape bunches sprinkled with isoleucine; assay type: in vivo; details: 10 mM isoleucine + 0.1% Applauch BI, 6.25 mL per bunch; Cabernet Sauvignon after start of veraison
Description: For the test, Cabernet Sauvignon plants that had been cultivated in a test cultivation field and had begun veraison were used. Eight bunches of fruit of the grape were collected from each of two root clumps, i.e., total 16 bunches of fruit were collected, and 6.25 mL per bunch of 0.1% Applauch BI (Kao, control), 1 g/L of abscisic acid (ABA)+0.1% Applauch BI (positive control), or 10 mM isoleucine+0.1% Applauch BI were sprinkled on them. The samples were collected 4 times, and they were collected from 4 bunches for each time. Anthocyanin contained in pericarp was extracted with a mixed solution of water and acetone (1:2) from pericarp, and anthocyanin content was measured in the same manner as described above.

[6] = system: Apples (variety, Tsugaru); assay: Anthocyanin content of pericarp of harvested apples immersed in Ile solutions; assay type: in vivo, apple; details: immersed 15 minutes in Ile solutions (1, 5, 10 mM) + 0.1% Applauch BI; 10th and 15th days after the treatment; compared to control group
Description: Apples (variety, Tsugaru) ready to mature (before coloring) were harvested, washed with tap water and then with distilled water, and immersed into water (control) and isoleucine (Ile) aqueous solutions of various concentrations for 15 minutes. To each treatment solution, 0.1% Applauch BI (Kao) was added. The treatment groups consisted of the following groups.
After the treatment, the apples were air-dried, and left standing in an incubator. The conditions consisted of constant temperature of 20° C., lighting condition of 120 μM/m^2/s obtained with 9 of 40 W fluorescent lamps, and daylength conditions of 16 hours of light period and 8 hours of dark period per day.
Pericarp color of the apples was evaluated by measuring anthocyanin content. Pericarp (0.5 g) collected from an apple of each treatment group was immersed in 5 mL of 2% formic acid at 4° C. for 24 hours to extract anthocyanin. Anthocyanin contained in the extract was analyzed by liquid chromatography. Since most part of anthocyanin of apple consists of cyanidin galactosides, anthocyanin concentration was calculated as cyanidin galactoside concentration.

[7] = system: LOX, JAR1, PI and MYC2 genes; assay: Investigation of isoleucine concentration for sprinkling (I): gene expression; assay type: in vivo, cherry tomato (Suncherry Pure); details: 1 mM, 4 mM, 7 mM or 10 mM Ile, 20 mL per plant, sprinkled twice; leaves 3 hours after second sprinkling
Description: One week afterward, Ile was sprinkled again in the same manner, the leaves were collected 3 hours thereafter, and expression of the LOX, JAR1, PI and MYC2 genes were analyzed in the same manner as described in Example 5.

[8] = relative to actin, compared to water (Con.)

## CC[C@H](C)[C@H](N)C(=O)O [Ile, L-isoleucine]
[1]
  Expression of the LOX, JAR1, PI and MYC2 genes: promoted
[2]
  expression of the MYC2 gene: increased
  expression of the PI gene: increased
[2]; [8]
  Expression of the JAR1 gene in leaves: significantly higher
  Expression of the LOX gene in leaves: significantly higher
[3]
  antioxidant capacity (free radical-eliminating ability, DPPH): higher
Tomato (Momotaro Fight); 10 mM, fruit of water-sprinkled plant was green
  color of fruit obtained from flowers that bloomed on the same day: already turned color to red
Tomato (Momotaro Fight); 107th day after sowing, per four root clumps, water: 0
  number of fruit turning color to orange or red: 4
Tomato (Momotaro Fight); after cultivation for 3 months after sowing, per four root clumps, water: 8
  number of harvested fruits: 16
[4]; 20° C.
  solubility of isoleucine in water: 40.2 mg/mL
[4]
  solubility of isoleucine in water: about 0.3 M
Rice seeds
  production of momilactones A and B: promoted
[5]
  anthocyanin content of pericarp: increases
[6]
  anthocyanin content of apple pericarp: higher
[7]
  Expression of the LOX, JAR1, PI and MYC2 genes: increased substantially in an Ile concentration-dependent manner
